Laboratory results taken from ChEMBL document CHEMBL1158865, “Mueggelone, a novel inhibitor of fish development from the fresh water cyanobacterium Aphanizomenon flos-aquae” (1997).
Calls of active or inactive are those of the source. The rule behind the calls is not given here.

Assays:
Danio rerio [1] = organism: Danio rerio; assay: Inhibition of larval development in zebra fish assessed as retardation of blood circulatory system development at 10 ug/mL after 32 hrs; assay type: functional, organism-based
Danio rerio [2] = organism: Danio rerio; assay: Inhibition of larval development in zebra fish assessed as mortality at 10 ug/mL after 24 hrs; assay type: functional; set-up: scale not given: the % may be the effect or the level left
Danio rerio [3] = organism: Danio rerio; assay: Inhibition of larval development in zebra fish at 1 ug/mL; assay type: functional, organism-based
Danio rerio [4] = organism: Danio rerio; assay: Inhibition of larval development in zebra fish assessed as retardation of blood circulatory system development at 10 ug/mL after 24 hrs; assay type: functional, organism-based
Danio rerio [5] = organism: Danio rerio; assay: Inhibition of larval development in zebra fish assessed as induction of thrombosis in heart at 10 ug/mL after 3 days; assay type: functional, organism-based
Danio rerio [6] = assay: Inhibition of larval development in zebra fish assessed as induction of edema in heart at 10 ug/mL after 3 days; assay type: functional, organism-based
Danio rerio [7] = organism: Danio rerio; assay: Inhibition of larval development in zebra fish assessed as mortality at 10 ug/mL after 48 hrs; assay type: functional; set-up: scale not given: the % may be the effect or the level left
Danio rerio [8] = organism: Danio rerio; assay: Inhibition of larval development in zebra fish assessed as effect on larval mortality at 100 ug/mL; assay type: functional, organism-based
Danio rerio [9] = organism: Danio rerio; assay: Inhibition of larval development in zebra fish assessed as tail bending at 100 ug/mL after 5 days; assay type: functional, organism-based
Danio rerio [10] = organism: Danio rerio; assay: Inhibition of larval development in zebra fish assessed as effect on larval mortality at 10 ug/mL; assay type: functional, organism-based
Danio rerio [11] = assay: Inhibition of larval development in zebra fish assessed as induction of edema in heart at 100 ug/mL after 5 days; assay type: functional, organism-based
Danio rerio [12] = assay: Inhibition of larval development in zebra fish assessed as induction of edema in heart at 100 ug/mL after 3 days; assay type: functional, organism-based
Danio rerio [13] = organism: Danio rerio; assay: Inhibition of larval development in zebra fish assessed as tail bending at 100 ug/mL after 3 days; assay type: functional; set-up: scale not given: the % may be the effect or the level left
Danio rerio [14] = organism: Danio rerio; assay: Inhibition of larval development in zebra fish at 10 ug/mL; assay type: functional, organism-based

| Compound | Activity (Danio rerio [1]) | Activity (Danio rerio [2]) | Activity (Danio rerio [3]) | Activity (Danio rerio [4]) | Activity (Danio rerio [5]) | Activity (Danio rerio [6]) | Activity (Danio rerio [7]) | Activity (Danio rerio [8]) | Activity (Danio rerio [9]) | Activity (Danio rerio [10]) | Activity (Danio rerio [11]) | Activity (Danio rerio [12]) | Activity (Danio rerio [13]) | Activity (Danio rerio [14]) |
| --- | --- | --- | --- | --- | --- | --- | --- | --- | --- | --- | --- | --- | --- | --- |
| CC/C=C\C[C@@H]1O[C@H]1/C=C/C1CCCCCCCC(=O)O1 (relative stereo) [MUEGGELONE] | Active | 45% | inactive | Active | Active | Active | 45% | – | – | – | – | – | – | – |
| C=C(C)[C@@H]1CC[C@]2(C)CC[C@]3(C)[C@H](CC[C@@H]4[C@@]5(C)CC[C@H](OC(C)=O)C(C)(C)[C@@H]5CC[C@]43C)[C@@H]12 [LUPENYL ACETATE] | – | – | – | – | – | – | – | inactive | Active | inactive | Active | Active | 30% | inactive |
